Earlier results, collected in article PMC5742115, “Pharmacophore Modeling and in Silico/in Vitro Screening for Human Cytochrome P450 11B1 and Cytochrome P450 11B2 Inhibitors” (Frontiers in Chemistry, 2017).
Like-named read-outs stand apart in the source and are kept apart here.

How the values were obtained:
CYP11B1 = details: reported activity, supplementary Table 1, read-out: CYP11B1 IC50, cited from earlier work
CYP11B2 = details: reported activity, supplementary Table 1, read-out: CYP11B2 IC50, cited from earlier work

SMILES	IC50 (CYP11B1; ref Roumen et al., 2010) [µM]	IC50 (CYP11B2; ref Roumen et al., 2010) [µM]	also measured
COc1ccc2c(c1)CC(C)C(c1cccnc1)=C2 (stereo not drawn) [CHEMBL502266]	–	–	IC50 (CYP11B1; ref Heim et al., 2008): 0.248 µM; IC50 (CYP11B2; ref Heim et al., 2008): 0.0033 µM
COc1cncc(-c2cc3ccc(OC)cc3cc2C)c1 [CHEMBL502818]	–	–	IC50 (CYP11B1; ref Heim et al., 2008): 0.875 µM; IC50 (CYP11B2; ref Heim et al., 2008): 0.0038 µM
COc1ccc2cc(-c3cncc(C(C)=O)c3)ccc2c1 [CHEMBL502824]	–	–	IC50 (CYP11B1; ref Heim et al., 2008): 0.255 µM; IC50 (CYP11B2; ref Heim et al., 2008): 0.0021 µM
S=C1CCc2cc(-c3cccnc3)cc(Cl)c2N1 [CHEMBL508155]	–	–	IC50 (CYP11B1; ref Lucas et al., 2008b): 0.769 µM; IC50 (CYP11B2; ref Lucas et al., 2008b): 0.0042 µM
O=C1CSc2cc(-c3cccnc3)ccc2N1 [CHEMBL509971]	–	–	IC50 (CYP11B1; ref Lucas et al., 2008b): 0.525 µM; IC50 (CYP11B2; ref Lucas et al., 2008b): 0.012 µM
S=C1CCc2cc(-c3cccnc3)ccc2N1 [CHEMBL511329]	–	–	IC50 (CYP11B1; ref Lucas et al., 2008b): 0.58 µM; IC50 (CYP11B2; ref Lucas et al., 2008b): 0.0031 µM
COc1ccc2cc(-c3cncc4ccccc34)c(C)cc2c1 [CHEMBL525785]	–	–	IC50 (CYP11B1; ref Heim et al., 2008): 0.843 µM; IC50 (CYP11B2; ref Heim et al., 2008): 0.0031 µM
COC(=O)Cc1cncc(-c2ccc3cc(OC)ccc3c2)c1 [CHEMBL526339]	–	–	IC50 (CYP11B1; ref Heim et al., 2008): 0.199 µM; IC50 (CYP11B2; ref Heim et al., 2008): 0.0069 µM
COC(=O)CCc1cncn1Cc1ccc(C#N)cc1 [CHEMBL591229]	0.031	0.0035	–
OCCCc1cncn1Cc1ccc(F)cc1 [CHEMBL591465]	0.116	0.016	–
COc1ccc(Cn2cncc2-c2ccccc2)cc1 [CHEMBL591697]	0.011	0.014	–
COC(=O)c1cncn1Cc1ccc(C#N)cc1 [CHEMBL591698]	0.048	0.007	–
COC(=O)CCc1cncn1Cc1ccc(Br)cc1 [CHEMBL592614]	0.057	0.004	–
Clc1ccc(Cn2cncc2-c2ccccc2)cc1 [CHEMBL597101]	0.025	0.0058	–
Brc1ccc(Cn2cncc2-c2ccccc2)cc1 [CHEMBL597173]	0.007	0.0051	–
N#Cc1ccc(Cn2cncc2-c2ccccc2)cc1 [CHEMBL597578]	0.028	0.0017	–
N#Cc1ccc(Cn2cncc2CCCO)cc1 [CHEMBL598399]	0.048	0.013	–
OCCCc1cncn1Cc1ccc(Cl)cc1 [CHEMBL598606]	0.044	0.055	–
N#Cc1ccc(Cn2cncc2-c2cccc(F)c2)cc1 [CHEMBL598789]	0.032	0.0055	–
N#Cc1ccc(Cn2cncc2-c2ccc(F)cc2)cc1 [CHEMBL598790]	0.027	0.025	–

SMILES	IC50 (CYP11B1; ref Roumen et al., 2010) [µM]	IC50 (CYP11B2; ref Roumen et al., 2010) [µM]	also measured
OCCCc1cncn1Cc1ccc(Br)cc1 [CHEMBL598810]	0.018	0.0062	–
COC(=O)OCc1cncn1Cc1ccc(C#N)cc1 [CHEMBL599222]	0.213	0.044	–
N#Cc1ccc(Cn2cncc2Br)cc1 [CHEMBL599223]	0.073	0.023	–
N#Cc1ccc(Cn2cncc2CO)cc1 [CHEMBL599601]	0.285	0.029	–
N#Cc1ccc(Cn2cncc2-c2ccccc2F)cc1 [CHEMBL599603]	0.02	0.0023	–
COC(=O)CCc1cncn1Cc1ccc(F)cc1 [CHEMBL599622]	0.104	0.05	–
Cc1cccc(-c2cncn2Cc2ccc(C#N)cc2)c1 [CHEMBL607862]	0.0062	0.0052	–
Fc1ccc(Cn2cncc2-c2ccccc2)cc1 [CHEMBL610501]	0.016	0.011	–
Cc1ccccc1-c1cncn1Cc1ccc(C#N)cc1 [CHEMBL610513]	0.0057	0.0037	–
N#Cc1ccc(Cn2cncc2C=O)cc1 [CHEMBL611680]	0.478	0.062	–
O=c1c2ccccc2oc2cccc(Cn3ccnc3)c12 [CHEMBL1083652]	–	–	IC50 (CYP11B1; ref Gobbi et al., 2013): 0.0991 µM; IC50 (CYP11B2; ref Gobbi et al., 2013): 0.114 µM
c1ccc(-c2ccc(Cn3ccnc3)cc2)cc1 [CHEMBL1235146]	–	–	IC50 (CYP11B1; ref Hille et al., 2011b): 0.032 µM; IC50 (CYP11B2; ref Hille et al., 2011b): 0.637 µM
Cc1cc(C)c(Cn2ccnc2)c(C)c1 [CHEMBL1649605]	–	–	IC50 (CYP11B1; ref Hille et al., 2011b): 0.024 µM; IC50 (CYP11B2; ref Hille et al., 2011b): 0.03 µM
Cc1ccccc1Cn1ccnc1 [CHEMBL1651492]	–	–	IC50 (CYP11B1; ref Hille et al., 2011b): 0.061 µM; IC50 (CYP11B2; ref Hille et al., 2011b): 0.062 µM
Cc1cccc(Cn2ccnc2)c1 [CHEMBL1651493]	–	–	IC50 (CYP11B1; ref Hille et al., 2011b): 0.048 µM; IC50 (CYP11B2; ref Hille et al., 2011b): 0.11 µM
Cc1cc(C)cc(Cn2ccnc2)c1 [CHEMBL1651494]	–	–	IC50 (CYP11B1; ref Hille et al., 2011b): 0.032 µM; IC50 (CYP11B2; ref Hille et al., 2011b): 0.077 µM
Cc1c(C)c(C)c(Cn2ccnc2)c(C)c1C [CHEMBL1651495]	–	–	IC50 (CYP11B1; ref Hille et al., 2011b): 0.005 µM; IC50 (CYP11B2; ref Hille et al., 2011b): 0.023 µM
c1ccc(-c2ccccc2Cn2ccnc2)cc1 [CHEMBL1651496]	–	–	IC50 (CYP11B1; ref Hille et al., 2011b): 0.015 µM; IC50 (CYP11B2; ref Hille et al., 2011b): 0.039 µM
c1ccc(-c2cccc(Cn3ccnc3)c2)cc1 [CHEMBL1651497]	–	–	IC50 (CYP11B1; ref Hille et al., 2011b): 0.046 µM; IC50 (CYP11B2; ref Hille et al., 2011b): 0.265 µM
